Experimental data as given in patent US9688710B2, “Inhibitors of sodium glucose cotransporter 1” (LEXICON PHARMACEUTICALS, INC., priority 2012, dated 2017).
pIC50: −log10 of the molar value.

Experiments:
[1] = biological target: Human sodium/glucose co-transporter type 1 (SGLT1) (Homo sapiens (Human), UniProt P13866); assay: In vitro human SGLT1 inhibition assay (14C-AMG uptake); assay type: cell-based; conditions: HEK293 cells expressing human HA-SGLT1, 14C-AMG uptake
Protocol: Human sodium/glucose co-transporter type 1 (SGLT1; accession number NP_000334; GI: 4507031) was cloned into pIRESpuro2 vector for mammalian expression (construct: HA-SGLT1-pIRESpuro2).
HEK293 cells were transfected with the human HA-SGLT1-pIRESpuro2 vector and the bulk stable cell line was selected in presence of 0.5 μg/mL of puromycin. Human HA-SGLT1 cells were maintained in DMEM media containing 10% FBS, 1% GPS and 0.5 μg/mL of puromycin.
The HEK293 cells expressing the human HA-SGLT1 were seeded in 384 well plates (30,000 cells/well) in DMEM media containing 10% FBS, 1% GPS and 0.5 μg/mL of puromycin, then incubated overnight at 37 C, 5% CO2. Cells were then washed with uptake buffer (140 mM NaCl, 2 mM KCl, 1 mM CaCl2, 1 mM MgCl2, 10 mM HEPES, 5 mM Tris, 1 mg/mL bovine serum albumin (BSA), pH 7.3). Twenty microliters of uptake buffer with or without testing compounds were added to the cells. Then, 20 microliters of uptake buffer containing ^14C-AMG (100 nCi) were also added to cells. The cell plates were incubated at 37° C., 5% CO2 for 1-2 hours. After washing the cells with uptake buffer, scintillation fluid was added (40 microliters/well) and ^14C-AMG uptake was measured by counting radioactivity using a scintillation coulter (TopCoulter NXT; Packard Instruments).

[2] = biological target: Human sodium/glucose co-transporter type 2 (SGLT2) (Homo sapiens (Human), UniProt P31639); assay: In vitro human SGLT2 inhibition assay (14C-AMG uptake); assay type: cell-based; conditions: HEK293 cells expressing human HA-SGLT2, 14C-AMG uptake
Protocol: Human sodium/glucose co-transporter type 2 (SGLT2; accession number P31639; GI:400337) was cloned into pIRESpuro2 vector for mammalian expression (construct: HA-SGLT2-pIRESpuro2).
HEK293 cells were transfected with the human HA-SGLT2-pIRESpuro2 vector and the bulk stable cell line was selected in presence of 0.5 μg/mL of puromycin. Human HA-SGLT2 cells were maintained in DMEM media containing 10% FBS, 1% GPS and 0.5 μg/mL of puromycin.
The HEK293 cells expressing the human HA-SGLT2 were seeded in 384 well plates (30,000 cells/well) in DMEM media containing 10% FBS, 1% GPS and 0.5 μg/mL of puromycin, then incubated overnight at 37 C, 5% CO2. Cells were then washed with uptake buffer (140 mM NaCl, 2 mM KCl, 1 mM CaCl2, 1 mM MgCl2, 10 mM HEPES, 5 mM Tris, 1 mg/mL bovine serum albumin (BSA), pH 7.3). Twenty microliters of uptake buffer with or without testing compounds were added to the cells. Then, 20 microliters of uptake buffer containing ^14C-AMG (100 nCi) were added to the cells. The cell plates were incubated at 37° C., 5% CO2 for 1-2 hours. After washing the cells with uptake buffer, scintillation fluid was added (40 microliters/well) and ^14C-AMG uptake was measured by counting radioactivity using a scintillation coulter (TopCoulter NXT; Packard Instruments).

Sequence of Human sodium/glucose co-transporter type 1 (SGLT1) (P13866 whole entry): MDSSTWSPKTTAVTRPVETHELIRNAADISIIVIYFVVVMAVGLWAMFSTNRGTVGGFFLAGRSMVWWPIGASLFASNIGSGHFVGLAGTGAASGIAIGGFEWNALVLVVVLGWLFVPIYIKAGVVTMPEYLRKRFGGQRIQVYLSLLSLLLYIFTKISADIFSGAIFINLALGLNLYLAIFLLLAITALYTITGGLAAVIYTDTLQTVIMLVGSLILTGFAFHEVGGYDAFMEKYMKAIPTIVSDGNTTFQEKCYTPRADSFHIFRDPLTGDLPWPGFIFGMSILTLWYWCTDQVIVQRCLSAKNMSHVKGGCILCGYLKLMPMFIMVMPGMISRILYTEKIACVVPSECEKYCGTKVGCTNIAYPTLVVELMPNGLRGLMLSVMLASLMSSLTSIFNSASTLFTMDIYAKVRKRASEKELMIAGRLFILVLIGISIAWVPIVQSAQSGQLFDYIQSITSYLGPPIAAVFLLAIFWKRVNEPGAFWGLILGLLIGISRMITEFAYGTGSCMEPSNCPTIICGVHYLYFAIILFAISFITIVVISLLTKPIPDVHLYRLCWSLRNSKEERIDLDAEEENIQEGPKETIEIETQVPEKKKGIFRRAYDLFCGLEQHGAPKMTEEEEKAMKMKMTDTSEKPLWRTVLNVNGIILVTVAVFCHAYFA
Sequence of Human sodium/glucose co-transporter type 2 (SGLT2) (P31639 whole entry): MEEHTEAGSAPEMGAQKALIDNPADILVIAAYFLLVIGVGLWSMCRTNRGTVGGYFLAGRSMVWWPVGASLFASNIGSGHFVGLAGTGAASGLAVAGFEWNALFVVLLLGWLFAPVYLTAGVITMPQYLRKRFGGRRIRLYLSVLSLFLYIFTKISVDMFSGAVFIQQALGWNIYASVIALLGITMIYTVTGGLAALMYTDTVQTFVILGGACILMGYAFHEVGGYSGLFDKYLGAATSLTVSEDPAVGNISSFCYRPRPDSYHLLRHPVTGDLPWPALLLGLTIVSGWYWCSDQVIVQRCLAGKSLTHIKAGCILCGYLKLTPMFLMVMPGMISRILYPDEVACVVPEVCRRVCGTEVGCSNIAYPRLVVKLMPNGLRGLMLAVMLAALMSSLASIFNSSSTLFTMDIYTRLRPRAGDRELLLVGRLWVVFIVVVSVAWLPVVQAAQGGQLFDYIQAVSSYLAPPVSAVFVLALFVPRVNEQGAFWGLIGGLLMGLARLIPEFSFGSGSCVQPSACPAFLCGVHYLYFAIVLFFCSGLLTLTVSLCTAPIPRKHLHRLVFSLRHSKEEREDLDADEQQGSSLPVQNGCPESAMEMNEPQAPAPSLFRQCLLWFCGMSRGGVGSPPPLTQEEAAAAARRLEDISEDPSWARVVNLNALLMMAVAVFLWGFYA

| pIC50 [1] | pIC50 [2] | Compound |
| --- | --- | --- |
| > 8.00 | > 8.00 | CS[C@H]1O[C@@H](c2ccc(C)c(Cc3ccc(CCCCNC(=O)NC(CO)(CO)CO)cc3)c2)[C@H](O)[C@@H](O)[C@@H]1O [1-(1,3-dihydroxy-2-(hydroxymethyl)propan-2-yl)-3-(4-(4-(2-methyl-5-((2S,3R,4R,5S,6R)-3,4,5-trihydroxy-6-(methylthio)tetrahydro-2H-pyran-2-yl)benzyl)phenyl)butyl)urea] |
| > 7.00 |  | CS[C@H]1O[C@@H](c2ccc(C)c(Cc3ccc(OCCNC(=O)NC(C)(C)CO)cc3)c2)[C@H](O)[C@@H](O)[C@@H]1O [1-(1-hydroxy-2-methylpropan-2-yl)-3-(2-(4-(2-methyl-5-((2S,3R,4R,5S,6R)-3,4,5-trihydroxy-6-(methylthio)tetrahydro-2H-pyran-2-yl)benzyl)phenoxy)ethyl)urea] |
| > 7.00 | > 8.00 | CS[C@H]1O[C@@H](c2ccc(C)c(Cc3ccc(CCCCNC(=O)NC(C)(C)CO)cc3)c2)[C@H](O)[C@@H](O)[C@@H]1O [1-(1-hydroxy-2-methylpropan-2-yl)-3-(4-(4-(2-methyl-5-((2S,3R,4R,5S,6R)-3,4,5-trihydroxy-6-(methylthio)tetrahydro-2H-pyran-2-yl)benzyl)phenyl)butyl)urea] |
| > 7.00 | > 8.00 | CS[C@H]1O[C@@H](c2ccc(C)c(Cc3ccc(CCCCCNC(=O)NC(C)(C)CO)cc3)c2)[C@H](O)[C@@H](O)[C@@H]1O [1-(1-hydroxy-2-methylpropan-2-yl)-3-(5-(4-(2-methyl-5-((2S,3R,4R,5S,6R)-3,4,5-trihydroxy-6-(methylthio)tetrahydro-2H-pyran-2-yl)benzyl)phenyl)pentyl)urea] |
| > 8.00 | > 8.00 | CS[C@H]1O[C@@H](c2ccc(Cl)c(Cc3ccc(OCCNC(=O)NC(C)(C)CO)cc3)c2)[C@H](O)[C@@H](O)[C@@H]1O [1-(2-(4-(2-chloro-5-((2S,3R,4R,5S,6R)-3,4,5-trihydroxy-6-(methylthio)tetrahydro-2H-pyran-2-yl)benzyl)phenoxy)ethyl)-3-(1-hydroxy-2-methylpropan-2-yl)urea] |
| > 8.00 | > 8.00 | CS[C@H]1O[C@@H](c2ccc(Cl)c(Cc3ccc(OCCNC(=N)N)cc3)c2)[C@H](O)[C@@H](O)[C@@H]1O [1-(2-(4-(2-chloro-5-((2S,3R,4R,5S,6R)-3,4,5-trihydroxy-6-(methylthio)tetrahydro-2H-pyran-2-yl)benzyl)phenoxy)ethyl)guanidine] |
| > 8.00 | > 8.00 | CS[C@H]1O[C@@H](c2ccc(C)c(Cc3ccc(OCCNC(=N)N)cc3)c2)[C@H](O)[C@@H](O)[C@@H]1O [1-(2-(4-(2-methyl-5-((2S,3R,4R,5S,6R)-3,4,5-trihydroxy-6-(methylthio)tetrahydro-2H-pyran-2-yl)benzyl)phenoxy)ethyl)guanidine] |
| > 8.00 | > 8.00 | CS[C@H]1O[C@@H](c2ccc(Cl)c(Cc3ccc(OCCCNC(=N)N)cc3)c2)[C@H](O)[C@@H](O)[C@@H]1O [1-(3-(4-(2-chloro-5-((2S,3R,4R,5S,6R)-3,4,5-trihydroxy-6-(methylthio)tetrahydro-2H-pyran-2-yl)benzyl)phenoxy)propyl)guanidine] |
| > 8.00 | > 8.00 | CS[C@H]1O[C@@H](c2ccc(C)c(Cc3ccc(OCCCC(=O)NC4(C(N)=O)CCCC4)cc3)c2)[C@H](O)[C@@H](O)[C@@H]1O [1-(4-(4-(2-methyl-5-((2S,3R,4R,5S,6R)-3,4,5-trihydroxy-6-(methylthio)tetrahydro-2H-pyran-2-yl)benzyl)phenoxy)butanamido)cyclopentanecarboxamide] |
| > 8.00 | > 8.00 | CS[C@H]1O[C@@H](c2ccc(C)c(Cc3ccc(CCCCNC(=N)N)cc3)c2)[C@H](O)[C@@H](O)[C@@H]1O [1-(4-(4-(2-methyl-5-((2S,3R,4R,5S,6R)-3,4,5-trihydroxy-6-(methylthio)tetrahydro-2H-pyran-2-yl)benzyl)phenyl)butyl)guanidine] |
| > 7.00 | > 8.00 | CS[C@H]1O[C@@H](c2ccc(C)c(Cc3ccc(OCCNC4(C(N)=O)CCCC4)cc3)c2)[C@H](O)[C@@H](O)[C@@H]1O [1-((2-(4-(2-methyl-5-((2S,3R,4R,5S,6R)-3,4,5-trihydroxy-6-(methylthio)tetrahydro-2H-pyran-2-yl)benzyl)phenoxy)ethyl)amino)cyclopentanecarboxamide] |
| > 8.00 | > 8.00 | CS[C@H]1OC(c2ccc(C)c(Cc3ccc(OCCCNC4(C(N)=O)CCCC4)cc3)c2)[C@H](O)[C@@H](O)[C@@H]1O (stereo partly drawn) [1-((3-(4-(2-methyl-5-((3R,4R,5S,6R)-3,4,5-trihydroxy-6-(methylthio)tetrahydro-2H-pyran-2-yl)benzyl)phenoxy)propyl)amino)cyclopentanecarboxamide] |
| > 7.00 | > 8.00 | CS[C@H]1O[C@@H](c2ccc(C)c(Cc3ccc(CCCCNC4(C(N)=O)CCCC4)cc3)c2)[C@H](O)[C@@H](O)[C@@H]1O [1-((4-(4-(2-methyl-5-((2S,3R,4R,5S,6R)-3,4,5-trihydroxy-6-(methylthio)tetrahydro-2H-pyran-2-yl)benzyl)phenyl)butyl)amino)cyclopentanecarboxamide] |
| > 7.00 | > 8.00 | CS[C@H]1O[C@@H](c2ccc(C)c(Cc3ccc(OCC(=O)NCC(C)(C)C(N)=O)cc3)c2)[C@H](O)[C@@H](O)[C@@H]1O [2,2-dimethyl-3-(2-(4-(2-methyl-5-((2S,3R,4R,5S,6R)-3,4,5-trihydroxy-6-(methylthio)tetrahydro-2H-pyran-2-yl)benzyl)phenoxy)acetamido)propanamide] |
| > 8.00 | > 8.00 | CS[C@H]1OC(c2ccc(C)c(Cc3ccc(OCCNC(=O)NCC(C)(C)C(N)=O)cc3)c2)[C@H](O)[C@@H](O)[C@@H]1O (stereo partly drawn) [2,2-dimethyl-3-(3-(2-(4-(2-methyl-5-((3R,4R,5S,6R)-3,4,5-trihydroxy-6-(methylthio)tetrahydro-2H-pyran-2-yl)benzyl)phenoxy)ethyl)ureido)propanamide] |
| > 7.00 | > 8.00 | CS[C@H]1O[C@@H](c2ccc(C)c(Cc3ccc(CCCC(=O)NCC(C)(C)C(=O)O)cc3)c2)[C@H](O)[C@@H](O)[C@@H]1O [2,2-dimethyl-3-(4-(4-(2-methyl-5-((2S,3R,4R,5S,6R)-3,4,5-trihydroxy-6-(methylthio)tetrahydro-2H-pyran-2-yl)benzyl)phenyl)butanamido)propanoic acid] |
| > 8.00 | > 8.00 | CS[C@H]1O[C@@H](c2ccc(C)c(Cc3ccc(OCCNCC(C)(C)C(N)=O)cc3)c2)[C@H](O)[C@@H](O)[C@@H]1O [2,2-dimethyl-3-((2-(4-(2-methyl-5-((2S,3R,4R,5S,6R)-3,4,5-trihydroxy-6-(methylthio)tetrahydro-2H-pyran-2-yl)benzyl)phenoxy)ethyl)amino)propanamide] |
| > 8.00 | > 8.00 | CS[C@H]1O[C@@H](c2ccc(C)c(Cc3ccc(OCCCNCC(C)(C)C(N)=O)cc3)c2)[C@H](O)[C@@H](O)[C@@H]1O [2,2-dimethyl-3-((3-(4-(2-methyl-5-((2S,3R,4R,5S,6R)-3,4,5-trihydroxy-6-(methylthio)tetrahydro-2H-pyran-2-yl)benzyl)phenoxy)propyl)-amino)propanamide] |
